{
  "source": "ChEMBL document CHEMBL4680168",
  "about": "“The development of a novel transforming growth factor-β (TGF-β) inhibitor that disrupts ligand-receptor interactions” (Eur J Med Chem, 2020)",
  "key": {"[1]": {"assay": "Inhibition of TGFbeta signalling pathway in MLEC preincubated for 30 mins followed by TGF-beta1 addition and measured after 18 hrs by Steady-Glo luciferase assay", "parameters": "species or system Neovison vison"}, "A549 [2]": {"test_system": "A549", "assay": "Inhibition of TGFBR1/TGFBR2 protein-protein interaction in human A549 cells assessed as inhibition of TGF-beta1-induced Erk1/Erk2 phosphorylation at 40 uM incubated for 6 hrs by Western blot analysis", "format": "cell-based", "conditions": "filed as antagonist"}, "A549 [3]": {"test_system": "A549", "assay": "Inhibition of TGFBR1/TGFBR2 protein-protein interaction in human A549 cells assessed as reduction in TGF-beta1-induced fibronectin expression preincubated for 2 hrs followed by TGF-beta1 addition and measured after 4 hrs by Western blot analysis", "format": "cell-based", "conditions": "filed as antagonist, dose 20-80 µM, time 6.0 hrs"}, "A549 [4]": {"test_system": "A549", "assay": "Inhibition of TGFBR1/TGFBR2 protein-protein interaction in human A549 cells assessed as inhibition of TGF-beta1-induced Smad2/Smad3 phosphorylation at 40 uM preincubated for 2 hrs followed by TGF-beta1-stimulation and measured after 4 hrs by Western blot analysis", "format": "cell-based", "conditions": "filed as antagonist, time 6.0 hrs"}, "[5]": {"assay": "Inhibition of TGFBR1/TGFBR2 protein-protein interaction in MLEC cells assessed as inhibition of TGF-beta1-induced dimer formation preincubated for 30 mins followed by TGF-beta1-stimulation and measured after overnight by pathhunter assay", "format": "cell-based, Neovison vison", "conditions": "Neogale vison"}, "A549 [6]": {"test_system": "A549", "assay": "Inhibition of TGFBR1/TGFBR2 protein-protein interaction in human A549 cells assessed as reduction in TGF-beta1-induced cell migration expression at 40 to 80 uM preincubated for 2 hrs followed by TGF-beta1 addition and measured after 24 hrs by scratch-wound healing assay", "format": "cell-based", "conditions": "filed as antagonist, dose 40-80 µM, time 26.0 hrs"}, "A549 [7]": {"test_system": "A549", "assay": "Inhibition of TGFBR1/TGFBR2 protein-protein interaction in human A549 cells assessed as inhibition of TGF-beta1-induced Erk1/Erk2 phosphorylation at 40 uM preincubated for 2 hrs followed by TGF-beta1-stimulation and measured after 4 hrs by Western blot analysis", "format": "cell-based", "conditions": "filed as antagonist, time 6.0 hrs"}, "[8]": {"assay": "Cytotoxicity against MLEC assessed as reduction in cell viability at 50 uM by MTT assay", "conditions": "neovison vison"}, "A549 [9]": {"test_system": "A549", "assay": "Inhibition of TGFBR1/TGFBR2 protein-protein interaction in human A549 cells assessed as reduction in TGF-beta1-induced MMP-2 expression preincubated for 2 hrs followed by TGF-beta1 addition and measured after 4 hrs by Western blot analysis", "format": "cell-based", "conditions": "filed as antagonist, dose 20-80 µM, time 6.0 hrs"}, "A549 [10]": {"test_system": "A549", "assay": "Inhibition of TGFBR1/TGFBR2 protein-protein interaction in human A549 cells assessed as inhibition of TGF-beta1-induced Akt phosphorylation at 40 uM preincubated for 2 hrs followed by TGF-beta1-stimulation and measured after 4 hrs by Western blot analysis", "format": "cell-based", "conditions": "filed as antagonist, time 6.0 hrs"}, "A549 [11]": {"test_system": "A549", "assay": "Inhibition of TGFBR1/TGFBR2 protein-protein interaction in human A549 cells assessed as reduction in TGF-beta1-induced cell migration expression preincubated for 2 hrs followed by TGF-beta1 addition and measured after 24 hrs by crystal violet staining based transwell assay", "conditions": "filed as antagonist, dose 20-80 µM, time 26.0 hrs"}, "A549 [12]": {"test_system": "A549", "assay": "Inhibition of TGFBR1/TGFBR2 protein-protein interaction in human A549 cells assessed as inhibition of TGF-beta1-induced Akt phosphorylation at 40 uM incubated for 6 hrs by Western blot analysis", "format": "cell-based", "conditions": "filed as antagonist"}, "A549 [13]": {"test_system": "A549", "assay": "Inhibition of TGFBR1/TGFBR2 protein-protein interaction in human A549 cells assessed as inhibition of TGF-beta1-induced Smad2/Smad3 phosphorylation at 40 uM incubated for 6 hrs by Western blot analysis", "format": "cell-based"}, "A549 [14]": {"test_system": "A549", "assay": "Inhibition of TGFBR1/TGFBR2 protein-protein interaction in human A549 cells assessed as reduction in TGF-beta1-induced alpha-SMA expression preincubated for 2 hrs followed by TGF-beta1 addition and measured after 4 hrs by Western blot analysis", "format": "cell-based", "conditions": "filed as antagonist, dose 20-80 µM, time 6.0 hrs"}, "A549 [15]": {"test_system": "A549", "assay": "Cytotoxicity against human A549 cells assessed as reduction in cell viability at 20 to 80 uM up to 48 hrs by MTT assay", "format": "cell-based", "conditions": "a549, 48 h, dose 20-80 µM"}, "A549 [16]": {"test_system": "A549", "assay": "Inhibition of TGFBR1/TGFBR2 protein-protein interaction in human A549 cells assessed as reduction in TGF-beta1-induced cell migration expression preincubated for 2 hrs followed by TGF-beta1 addition and measured after 48 hrs by scratch-wound healing assay", "format": "cell-based", "conditions": "filed as antagonist, dose 20-80 µM, time 50.0 hrs"}},
  "note": "The source made the active and inactive calls. The calls are words filed in the database; no cut-off is given here.",
  "data": [
    {"smiles": "c1ccc(CN2COc3c(c4c(c5c3CN(Cc3ccccc3)CO5)CN(Cc3ccccc3)CO4)C2)cc1", "values": [
      {"measurement": "IC50", "setting": "[1]; read-out: IC50", "result": 18, "unit": "µM"}
    ]},
    {"smiles": "Cc1c(CNc2ccccc2)c(C)c(CNc2ccccc2)c(C)c1CNc1ccccc1", "values": [
      {"measurement": "Activity", "setting": "A549 [2]", "result": "Active"},
      {"measurement": "Activity", "setting": "A549 [3]", "result": "Dose-dependent effect"},
      {"measurement": "Activity", "setting": "A549 [4]", "result": "Active"},
      {"measurement": "IC50", "setting": "[5]", "result": 23.6, "unit": "µM"},
      {"measurement": "Activity", "setting": "A549 [6]", "result": "Active"},
      {"measurement": "Activity", "setting": "A549 [7]", "result": "Active"},
      {"measurement": "Activity", "setting": "[8]", "result": "Non-Toxic"},
      {"measurement": "Activity", "setting": "A549 [9]", "result": "Dose-dependent effect"},
      {"measurement": "Activity", "setting": "A549 [10]", "result": "Active"},
      {"measurement": "Activity", "setting": "A549 [11]", "result": "Dose-dependent effect"},
      {"measurement": "IC50", "setting": "[1]; read-out: IC50", "result": 5.3, "unit": "µM"},
      {"measurement": "Activity", "setting": "A549 [12]", "result": "Active"},
      {"measurement": "Activity", "setting": "A549 [13]", "result": "inactive"},
      {"measurement": "Activity", "setting": "A549 [14]", "result": "Dose-dependent effect"},
      {"measurement": "Activity", "setting": "A549 [15]", "result": "Non-Toxic"},
      {"measurement": "Activity", "setting": "A549 [16]", "result": "Dose-dependent effect"}
    ]},
    {"smiles": "Cc1c(CNCc2ccccc2)c(C)c(CNCc2ccccc2)c(C)c1CNCc1ccccc1", "values": [
      {"measurement": "Activity", "setting": "[8]", "result": "Toxic"}
    ]},
    {"smiles": "COC(=O)c1cccc(NCc2c(C)c(CNc3cccc(C(=O)OC)c3)c(C)c(CNc3cccc(C(=O)OC)c3)c2C)c1", "values": [
      {"measurement": "Activity", "setting": "[8]", "result": "Non-Toxic"},
      {"measurement": "IC50", "setting": "[1]; read-out: IC50", "result": 38.1, "unit": "µM"}
    ]},
    {"smiles": "Cc1c(CNc2cccc(C(N)=O)c2)c(C)c(CNc2cccc(C(N)=O)c2)c(C)c1CNc1cccc(C(N)=O)c1", "values": [
      {"measurement": "Activity", "setting": "[8]", "result": "Non-Toxic"},
      {"measurement": "IC50", "setting": "[1]; read-out: IC50", "result": 31.9, "unit": "µM"}
    ]},
    {"smiles": "CC(=O)c1ccc(NCc2c(C)c(CNc3ccc(C(C)=O)cc3)c(C)c(CNc3ccc(C(C)=O)cc3)c2C)cc1", "values": [
      {"measurement": "Activity", "setting": "[8]", "result": "Non-Toxic"},
      {"measurement": "IC50", "setting": "[1]; read-out: IC50", "result": "> 50", "unit": "µM"}
    ]},
    {"smiles": "CC(=O)c1cccc(NCc2c(C)c(CNc3cccc(C(C)=O)c3)c(C)c(CNc3cccc(C(C)=O)c3)c2C)c1", "values": [
      {"measurement": "Activity", "setting": "[8]", "result": "Non-Toxic"},
      {"measurement": "IC50", "setting": "[1]", "result": "Not Active"}
    ]},
    {"smiles": "Cc1c(CNc2ccc(C(N)=O)cc2)c(C)c(CNc2ccc(C(N)=O)cc2)c(C)c1CNc1ccc(C(N)=O)cc1", "values": [
      {"measurement": "Activity", "setting": "[8]", "result": "Non-Toxic"},
      {"measurement": "IC50", "setting": "[1]", "result": "Not Active"}
    ]},
    {"smiles": "COC(=O)c1cccc(CNCc2c(C)c(CNCc3cccc(C(=O)OC)c3)c(C)c(CNCc3cccc(C(=O)OC)c3)c2C)c1", "values": [
      {"measurement": "Activity", "setting": "[8]", "result": "Toxic"}
    ]},
    {"smiles": "COC(=O)c1ccc(NCc2c(C)c(CNc3ccc(C(=O)OC)cc3)c(C)c(CNc3ccc(C(=O)OC)cc3)c2C)cc1", "values": [
      {"measurement": "Activity", "setting": "[8]", "result": "Non-Toxic"},
      {"measurement": "IC50", "setting": "[1]", "result": "Not Active"}
    ]},
    {"smiles": "COC(=O)c1ccc(CNCc2c(C)c(CNCc3ccc(C(=O)OC)cc3)c(C)c(CNCc3ccc(C(=O)OC)cc3)c2C)cc1", "values": [
      {"measurement": "Activity", "setting": "[8]", "result": "Toxic"}
    ]}
  ]
}
